Data: PubChem BioAssay (NCI)
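Assay format: 96-well plates, 48-hour exposure. At the GI50, growth is halved. The concentration for full growth arrest is given as TGI.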

Experiments:
Assay in all cases: growth of human tumour cells (NCI), 48 h
[1] = tested on: EKVX NSCLC
[2] = tested on: HCC-2998 colon
[3] = tested on: HCT-116 colon
[4] = tested on: HCT-15 colon
[5] = tested on: HL-60(TB) leukemia
[6] = tested on: SF-295 CNS
[7] = tested on: SF-539 CNS
[8] = tested on: UACC-257 melanoma
[9] = tested on: UO-31 renal
[10] = tested on: HT29 colon
[11] = tested on: NCI-H23 lung
[12] = tested on: OVCAR-8 ovarian
[13] = tested on: RXF 393 renal
[14] = tested on: DU-145 prostate
[15] = tested on: MDA-MB-231 breast
[16] = tested on: T-47D breast
[17] = tested on: MCF7 breast

Row | SMILES | TGI [1] [µM] | TGI [2] [µM] | TGI [3] [µM] | TGI [4] [µM] | TGI [5] [µM] | TGI [6] [µM] | TGI [7] [µM] | TGI [8] [µM] | TGI [9] [µM] | TGI [10] [µM] | TGI [11] [µM] | TGI [12] [µM] | TGI [13] [µM] | TGI [14] [µM] | TGI [15] [µM] | TGI [16] [µM] | TGI [17] [µM] | GI50 [3] [µM] | GI50 [13] [µM] | GI50 [6] [µM]
1 | COc1c(Cl)c2c(c(OC)c1OC)-c1ccc(OC)c(=O)c(Cl)c1C(NC(C)=O)CC2 (stereo not drawn) | > 100 | 0.453 | 0.322 | 2.38 | 2.77 | 0.49 | 0.444 | > 100 | > 100 |  |  |  |  |  |  |  |  |  |  | 
2 | C/C(=N\NS(=O)(=O)c1ccc(C)cc1)C(CN1CCOCC1)C(c1ccccc1)c1c(O)c2ccccc2oc1=O (stereo not drawn) | > 100 |  | > 100 | > 100 | 76.1 | > 100 | > 100 | > 100 | > 100 | > 100 | > 100 | > 100 | > 100 |  |  |  |  |  |  | 
3 | O=C1CCCCC/C1=C\c1ccc(F)cc1 | > 100 | > 100 | > 100 | > 100 |  | > 100 |  | > 100 | > 100 | > 100 | > 100 |  |  | > 100 | > 100 | > 100 |  |  |  | 
4 | C/C=C/c1c(O)c(=O)c2c(OC)cc(OC)c3c4c(OC)cc(OC)c5c(=O)c(O)c(/C=C/C)c(c1c23)c54 | 40.5 | > 100 | 28 |  |  | > 100 | > 100 | 45.5 | 6.33 | 23.8 | 23.9 | 31.4 |  | 23.4 | 34.9 |  | > 100 |  |  | 
5 | CCOC(=O)Cc1nnc2c(-c3ccccc3)nc3ccccc3n12 | 79.8 | 64.8 | > 100 | > 100 | > 100 |  | > 100 | > 100 | > 100 | > 100 | > 100 |  | 36.4 | 73.4 | 45.3 |  | > 100 |  |  | 
6 | CC(=O)O[C@H]1C(=O)[C@@]2(C)[C@H]([C@H](OC(=O)c3ccccc3)[C@]3(O)C[C@H](OC(=O)[C@H](OC(=O)OCCC(O)CO)[C@@H](NC(=O)c4ccccc4)c4ccccc4)C(C)=C1C3(C)C)[C@]1(OC(C)=O)CO[C@@H]1C[C@@H]2O (stereo partly drawn) | > 100 | 0.0471 | 11.3 | > 35.4 | < 0.01 | 0.187 | < 0.01 | 23.3 | > 100 | > 100 | > 37 | > 53 | 18.5 |  | 21.6 |  | 14.1 |  |  | 
7 | COC(=O)[C@@H]1CN(C(=O)c2ccccc2)C(=O)N1 | > 100 |  | > 100 |  | > 100 | > 100 | > 100 | > 100 | > 100 | > 100 | > 100 | > 100 | > 100 | > 100 | > 100 | > 100 |  |  |  | 
8 | Cc1nc2c(n1CCO)C(=O)c1ccccc1C2=O | > 100 | > 100 | 43 | > 100 | 54.2 | > 100 | 88.9 | 34 | > 100 | > 100 | 30.8 | > 100 | > 100 |  |  |  |  |  |  | 
9 | O=c1cc(-c2ccccc2)[nH]c2cc(F)c(F)cc12 | > 100 | > 30.9 | > 100 | > 100 | 3.14 | > 100 | 2.33 | > 100 | > 100 | > 46.4 | 22.9 | > 100 | 0.616 | 34.1 | > 77.2 |  | > 71.9 |  |  | 
10 | CCN1CCC(O)(c2ccc(C)cc2)C(C(=O)c2ccc(C)cc2)C1 (stereo not drawn) | 36.1 | > 100 | 30.3 | 36.5 | 47.7 | > 100 | > 59.1 | 36.6 | > 57.5 | 36.9 | > 55.1 | 49.9 |  |  |  |  |  |  |  | 
11 | N#Cc1c2ccc([N+](=O)[O-])cc2c(=O)n2c1sc1ccc(C(F)(F)F)cc12 | > 100 |  | > 100 | > 100 |  | > 100 | > 100 | > 100 | > 100 | > 100 | > 100 | > 100 | > 100 | > 100 | > 100 | > 100 |  |  |  | 
12 | COc1cc(OC)cc(Oc2nc3ccccc3nc2C(=O)O)c1 | > 100 | > 100 | > 100 | > 100 | > 100 | > 100 |  | > 100 | > 100 | > 100 | > 100 | > 100 | > 100 | > 100 | > 100 | > 100 |  |  |  | 
13 | COc1cccc(-c2cc(=O)c3cc(OC)c(OC)cc3[nH]2)c1 | > 100 | > 100 | > 100 | > 100 | > 100 | > 100 | 77.3 | > 100 | > 100 | > 100 | > 100 | > 100 | > 100 |  |  |  |  | 59.2 | 33.3 | 40.3
14 | Cn1c2ccccc2c2c(-c3ccccc3)[n+]3ccccc3nc21 | > 100 |  |  | > 100 | 66.6 | > 100 | > 100 | 36.9 | > 100 | > 100 | 54.1 | > 100 |  | > 100 | 97.5 | > 100 |  |  |  | 
15 | Cc1ccc2c(c1)C(=O)/C(=C\c1ccccc1)CCS2(=O)=O | > 100 | 28.6 | 18.7 | 19.7 |  | 29.6 | 29.9 | 31.6 | 26.7 | 24.1 | 40.7 | 62.6 |  | 21.8 | 35.5 | 49.6 | 18.9 |  |  | 
16 | Cc1cc(C)nc(NS(=O)(=O)c2ccc(Nc3nncc(=O)n3N)cc2)n1 | 62.7 | 80.7 | 87.8 | 28.8 | 40.2 | > 100 | > 100 | 43.9 | 33.9 | 32.2 | 28.6 | 29.2 |  | > 100 |  | 38.3 | 30.3 |  |  | 
